Here are results for 14 compounds from ChEMBL document CHEMBL1149305, “Charge and substituent effects on affinity and metabolism of benzbromarone-based CYP2C19 inhibitors” (J Med Chem, 2004).

Series [1] can be described thus: Dissociation constant, pKa of the compound. The class given is physicochemical.
For the next series, the target named is Cytochrome P450 2C19 (Homo sapiens, UniProt P33261). Nature of the series: Inhibition of human CYP2C19. The series is classed as ADME.
The target of the next series is Cytochrome P450 2C9 (Homo sapiens, UniProt P11712). Kind of series: Inhibition of human CYP2C9.
Cytochrome P450 2C9, sequence (P11712 whole entry): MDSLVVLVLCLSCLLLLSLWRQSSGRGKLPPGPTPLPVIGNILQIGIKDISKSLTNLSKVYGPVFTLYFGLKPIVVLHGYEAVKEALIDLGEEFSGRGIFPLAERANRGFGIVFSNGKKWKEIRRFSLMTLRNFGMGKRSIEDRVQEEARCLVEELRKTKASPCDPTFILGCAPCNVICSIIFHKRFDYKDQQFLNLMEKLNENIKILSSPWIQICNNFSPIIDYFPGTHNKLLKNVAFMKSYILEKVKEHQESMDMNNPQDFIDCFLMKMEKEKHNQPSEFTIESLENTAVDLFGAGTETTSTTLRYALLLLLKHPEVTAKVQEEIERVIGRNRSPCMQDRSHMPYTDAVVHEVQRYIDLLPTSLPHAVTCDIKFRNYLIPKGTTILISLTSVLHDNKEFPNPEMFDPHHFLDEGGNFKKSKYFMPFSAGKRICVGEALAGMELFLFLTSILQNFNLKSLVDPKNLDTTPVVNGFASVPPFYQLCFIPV

Cytochrome P450 2C19, sequence (P33261 whole entry): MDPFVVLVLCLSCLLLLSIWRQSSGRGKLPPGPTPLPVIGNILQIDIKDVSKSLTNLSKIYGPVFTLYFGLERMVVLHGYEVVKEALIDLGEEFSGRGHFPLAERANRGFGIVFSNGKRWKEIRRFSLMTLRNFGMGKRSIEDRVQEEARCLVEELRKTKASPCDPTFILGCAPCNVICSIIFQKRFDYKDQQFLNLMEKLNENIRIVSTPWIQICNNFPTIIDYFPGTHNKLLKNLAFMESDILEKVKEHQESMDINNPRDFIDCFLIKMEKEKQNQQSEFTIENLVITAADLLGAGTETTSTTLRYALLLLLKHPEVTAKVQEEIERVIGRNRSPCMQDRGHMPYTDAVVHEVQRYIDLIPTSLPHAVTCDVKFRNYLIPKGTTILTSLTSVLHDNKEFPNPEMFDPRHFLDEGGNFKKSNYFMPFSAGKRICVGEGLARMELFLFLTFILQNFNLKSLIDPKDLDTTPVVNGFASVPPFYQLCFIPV

For orientation: Ki means a dissociation constant, usually derived from enzyme kinetics or from competition with a known ligand. Read a high Ki as lower affinity. With `COc1ccc(C(=O)c2c(C)oc3ccccc23)cc1`, the Activity result in series [1] is listed as “Not Active”. The compound also had a Ki on Cytochrome P450 2C19 of 4500 nM. By pKa is commonly meant the negative logarithm of the acid dissociation constant. The low end stands for a group that gives up its proton readily, the high end for a group that holds its proton tightly. Consider `Cc1oc2ccccc2c1C(=O)c1cc(I)c(O)c(I)c1`, for which the pKa in series [1] is 5.2. Further, the Ki on Cytochrome P450 2C19 is 7200 nM.

The compound `CCc1oc2ccccc2c1C(O)c1cc(Br)c(O)c(Br)c1` (configuration not stated) returned a pKa in series [1] of 8.8. For the same compound, affinity at Cytochrome P450 2C19 was put at a Ki of 300 nM. In series [1], `CCc1oc2ccccc2c1C(=O)c1cc(Br)c(O)c(Br)c1` [BENZBROMARONE] yielded a pKa of 4.5. `Cc1oc2ccccc2c1C(=O)c1cc(Br)c(O)c(Br)c1`: at Cytochrome P450 2C19, affinity was put at a Ki of 2400 nM.

As to `CCc1oc2ccccc2c1C(=O)c1cc(Cl)nc(Cl)c1`, the Activity result in series [1] is “Not Active”. Also, on Cytochrome P450 2C19, the inhibitory constant (Ki) was 13000 nM.

For the compound `Cc1oc2ccccc2c1C(=O)c1cccc(O)c1`, in series [1], the pKa stood at 8.4. This compound also came in with a Ki on Cytochrome P450 2C19 of 4500 nM. Regarding `CCc1oc2ccccc2c1C(=O)c1cc(C)c(OC)c(C)c1`, the Activity entry in series [1] was “Not Active”. The inhibition constant (Ki) at Cytochrome P450 2C19 was 250 nM. Take `CCc1oc2ccccc2c1C(=O)c1cc(Br)c(OC)c(Br)c1`: the Activity result in series [1] is recorded as “Not Active”. This compound also returned an inhibition constant (Ki) on Cytochrome P450 2C19 of 370 nM. Consider `Cc1oc2ccccc2c1C(=O)C1CCCCC1`, for which the Activity result in series [1] is reported as “Not Active”. This compound also showed a Ki at Cytochrome P450 2C19 of 13000 nM. The compound `CCc1oc2ccccc2c1C(=O)c1cc(C)c(O)c(C)c1` registered a pKa in series [1] of 8.5. Besides, the Ki at Cytochrome P450 2C19 was found to be 33 nM; on Cytochrome P450 2C9 it was 40 nM.

As to `CCc1oc2ccccc2c1C(=O)c1ccc(N(C)C)cc1`, the Activity entry in series [1] is recorded as “Not Active”. In addition, the Ki on Cytochrome P450 2C19 stood at 3700 nM. Regarding `CCc1oc2ccccc2c1C(=O)Cc1cc(Br)c(O)c(Br)c1`, in series [1], the pKa came to 8.6. In addition, at Cytochrome P450 2C19, affinity was put at a Ki of 1600 nM.

In turn, `Cc1oc2ccccc2c1C(=O)c1ccc(O)cc1` displayed a pKa in series [1] of 8.4. At Cytochrome P450 2C19, the affinity corresponds to a Ki of 2500 nM.
